Laboratory results taken from US7320878B2, “Protease assay for therapeutic drug monitoring” (Tibotec Pharmaceuticals, Ltd., priority 2001, dated 2008).

Columns and labels:
[1] = test system: α-acid glycoprotein (AAG); assay: Binding constant (Ka) of the drug to alpha-acid glycoprotein; parameters: species or system human
[2] = test system: normal human serum proteins; details: 5 min, 1 μM
Experimental: To one part of serum sample two parts of MeOH were added, mixed and centrifuged at 16,100 g for 30 min. The supernatant was recovered and can be stored for at least 2 weeks at −20° C. prior to assay. 60 μl is used for the cuvette assay or 24 μl is used for the plate reader assay. Six serial dilutions 1:2 to 1:120 of the extracts, obtained from analyte samples were prepared prior to assay. Methanol extract of normal dog serum without inhibitor was used for the dilution.
For the plate reader assay, the following conditions were used: The buffer was prepared of 50 mM Sodium acetate (NaOAc), pH 4.5, 2 mM dithiothreitol (DTT), 20 mM Sodium Chloride (NaCl), 0.01% Tween 20. The substrate was present at a final concentration of 20 μM in the above buffer. The substrate used is based on a natural substrate for HIV protease. It contains a portion (P4-P4′) of the p17-p24 gag protein. […] The enzyme, wild type HIV-1 protease, was present in the above buffer (50 mM NaOAc, pH4.5, 2 mM DTT, 200 mM NaCl), 0.01% Tween 20) at a final concentration of 4-5 nM. It should be appreciated that other forms of HIV protease can be used as well, including mutant forms of the protease.
The assay is performed at room temperature (RT). […] The reaction was started by adding 88 μl buffer containing substrate and the increase of fluorescence was monitored over time (FIG. 2). […]

plasma protein = details: cited from earlier work

Row | Ka for AAG binding [1] | Free/total drug ratio (%), percentage of HIV protease inhibitor in sample not bound to proteins [2] | Structure (SMILES) | plasma protein bound (plasma protein)
1 | No binding | – | CC(C)(C)NC(=O)[C@@H]1CN(Cc2cccnc2)CCN1C[C@@H](O)C[C@@H](Cc1ccccc1)C(=O)N[C@H]1c2ccccc2C[C@H]1O [IDV, indinavir] | –
2 | 2.3 10^6 M^−1 | 10.5% | CC(C)CN(C[C@@H](O)[C@H](Cc1ccccc1)NC(=O)[C@H](CC(N)=O)NC(=O)c1ccc2ccccc2n1)C(=O)NC(C)(C)C [SC-52151] | –
3 | – | – | CC(C)(C)NC(=O)[C@@H]1C[C@@H]2CCCC[C@@H]2CN1C[C@@H](O)[C@H](Cc1ccccc1)NC(=O)[C@H](CC(N)=O)NC(=O)c1ccc2ccccc2n1 [saquinavir] | 90-99%
